Patent US6613762B2, “Gambogic acid, analogs and derivatives as activators of caspases and inducers of apoptosis” (Cytovia, Inc., priority 1999, dated 2003)

Test system: caspase activity, ZR-75 cells
Test: Caspase induction and its inhibition by caspase inhibitor (Example 97), ZR-75
Type: cell-based, human
Parameters: key to Inhibition of caspase activity by Inhibitor: The caspase activity detected was inhibited by the caspase inhibitor (+)
Procedure: T47D, ZR-75, PC3, SHP-77 and A-549 cells were maintained and harvested as described in Example 90. Cells were added to 96-well plates as described in Example 90. The cells were treated with 10 μM gambogic acid, in the presence and in the absence of 10 μM caspase inhibitor cbz-Val-Asp-fmk (Cytovia, Inc.; WO99/18781). The plate was incubated up to 24 h at 37° C in a 5% CO2-95% humidity incubator. Caspase activity was determined by addition of a fluorogenic substrate as described in Example 90.
Gambogic acid induced caspase activity in a ratio of greater than 2.5 (+) above untreated cell levels in all the tested cancer cell lines (Table IV). The caspase activity detected was inhibited by the caspase inhibitor (+), confirming that the fluorescent signal was due to caspase activity.

## CC(C)=CCC[C@]1(C)C=Cc2c(O)c3c(c(CC=C(C)C)c2O1)O[C@]12C(=C[C@@H]4C[C@H]1C(C)(C)O[C@@]2(C/C=C(/C)C(=O)O)C4=O)C3=O [Example 1, Gambogic Acid]
ZR-75, 10 μM gambogic acid with 10 μM caspase inhibitor cbz-Val-Asp-fmk
  Inhibition of caspase activity by Inhibitor: +
ZR-75, 10 μM gambogic acid, up to 24 h
  Caspase activity: + (Gambogic acid induced caspase activity in a ratio of greater than 2.5 (+) above untreated cell levels)
